Broadly, the IC50 is the concentration at which inhibition is half-maximal. A higher IC50 goes with a need for much substance.

SMILES strings stand for the structures.

This note sets out measurements from US9896418B2, “Aryl ethers and uses thereof” (Peloton Therapeutics, Inc., priority 2013, dated 2018).

The test system of this assay is HIF-2α HIS TAG-PASB Domain. The experiment in a line: HIF-2α Scintillation Proximity Assay (SPA). The format is binding. The method, then: The percent inhibition was determined and IC50 values were calculated using the Dotmatics system based on the following equation: % inhibition=[(high control−sample)/(high control−low control)]×100.
(In general: Scintillation proximity formats need no separation of bound from free tracer.)

For `CS(=O)(=NC#N)c1ccc(Oc2cc(F)cc(F)c2)c2c1C(O)CC2` (stereo not drawn) [Compound 189, N-((7-(3,5-Difluorophenoxy)-3-hydroxy-2,3-dihydro-1H-inden-4-yl)(methyl)(oxo)-λ^6-sulfanylidene)cyanamide], 3.2 µM corresponded to half-maximal inhibition (IC50).
`CS(=N)(=O)c1ccc(Oc2cc(F)cc(F)c2)c2c1C(O)CC2` (stereo not drawn) [Compound 190, (7-(3,5-Difluorophenoxy)-3-hydroxy-2,3-dihydro-1H-inden-4-yl)(imino)(methyl)-λ^6-sulfanone] yielded an IC50 of 0.58 µM.
As for `O=C1c2c(S(=O)(=O)C(F)F)ccc(Oc3ccc(F)c(Br)c3)c2CC1(F)F` [Compound 193, 4-(3-Bromo-4-fluorophenoxy)-7-((difluoromethyl)sulfonyl)-2,2-difluoro-2,3-dihydro-1H-inden-1-one], half-maximal inhibition (IC50) required 0.9 µM.
For `O=C1c2c(S(=O)(=O)C(F)F)ccc(Oc3ccc(F)c(F)c3)c2CC1(F)F` [Compound 195, 7-((Difluoromethyl)sulfonyl)-4-(3,4-difluorophenoxy)-2,2-difluoro-2,3-dihydro-1H-inden-1-one] the value was 0.11 µM; for `Cc1cc(Oc2ccc(S(=O)(=O)C(F)F)c3c2CC(F)(F)C3=O)ccc1F` [Compound 197, 7-((Difluoromethyl)sulfonyl)-2,2-difluoro-4-(4-fluoro-3-methylphenoxy)-2,3-dihydro-1H-inden-1-one], 0.77 µM; for `N#Cc1cc(F)cc(Oc2ccc(S(=O)(=O)C(F)F)c3c2CCC3F)c1` (stereo not drawn) [Compound 202, 3-((7-((Difluoromethyl)sulfonyl)-1-fluoro-2,3-dihydro-1H-inden-4-yl)oxy)-5-fluorobenzonitrile], 0.68 µM.
`O=[N+]([O-])c1c(Oc2cc(F)cc(Cl)c2)ccc(C(F)(F)F)c1Cl` [Compound 203, 2-Chloro-4-(3-chloro-5-fluorophenoxy)-3-nitro-1-(trifluoromethyl)benzene] showed an IC50 of 0.077 µM.
The figure for `O=[N+]([O-])c1c(Oc2cccc(Cl)c2)ccc(C(F)(F)F)c1Cl` [Compound 204, 2-Chloro-4-(3-chlorophenoxy)-3-nitro-1-(trifluoromethyl)benzene 1,3-dichloro-2-nitro-4-(trifluoromethyl)benzene] is 0.21 µM; for `CCS(=O)(=O)c1ccc(Oc2cc(F)cc(C#N)c2)c2c1C(O)CC2` (stereo not drawn) [Compound 205, 3-((7-(Ethylsulfonyl)-1-hydroxy-2,3-dihydro-1H-inden-4-yl)oxy)-5-fluorobenzonitrile] it is 2.4 µM.
For `N#Cc1cc(F)cc(Oc2ccc(S(=O)(=O)C(F)F)c3c2CC(F)(F)[C@H]3N)c1` [Compound 207, (S)-3-((1-Amino-7-((difluoromethyl)sulfonyl)-2,2-difluoro-2,3-dihydro-1H-inden-4-yl)oxy)-5-fluorobenzonitrile] the value was 0.5 µM; for `N#Cc1cc(F)cc(Oc2ccc(S(=O)(=O)C3CCC3)c3c2CCC3O)c1` (stereo not drawn) [Compound 208, 3-((7-(Cyclobutylsulfonyl)-1-hydroxy-2,3-dihydro-1H-inden-4-yl)oxy)-5-fluorobenzonitrile], over 100 µM.
The figure for `CO[C@H]1c2c(S(C)(=O)=O)ccc(Oc3cc(F)cc(C#N)c3)c2CC1(F)F` [Compound 210, (S)-3-((2,2-Difluoro-1-methoxy-7-(methylsulfonyl)-2,3-dihydro-1H-inden-4-yl)oxy)-5-fluorobenzonitrile] is 17 µM; for `CNS(=O)(=O)c1ccc(Oc2cc(F)cc(F)c2)c2c1C(O)CC2` (stereo not drawn) [Compound 211, 7-(3,5-Difluorophenoxy)-3-hydroxy-N-methyl-2,3-dihydro-1H-indene-4-sulfonamide] it is 2.1 µM; for `O=S(=O)(c1ccc(Oc2ccc(F)cc2)c2c1C(O)CC2)C(F)(F)F` (stereo not drawn) [Compound 212, 4-(4-Fluorophenoxy)-7-((trifluoromethyl)sulfonyl)-2,3-dihydro-1H-inden-1-ol] it is 0.67 µM.
`Cc1cc(Oc2cc(F)cc(C#N)c2)c2c(c1S(C)(=O)=O)C(O)C(F)(F)C2` (stereo not drawn) [Compound 213, 3-((2,2-Difluoro-1-hydroxy-6-methyl-7-(methylsulfonyl)-2,3-dihydro-1H-inden-4-yl)oxy)-5-fluorobenzonitrile]: the 50% inhibitory concentration (IC50) turned out to be 0.8 µM.
The figure for `O=S(=O)(c1ccc(Oc2ccc(F)c(F)c2)c2c1C(O)CC2)C(F)(F)F` (stereo not drawn) [Compound 214, 4-(3,4-Difluorophenoxy)-7-((trifluoromethyl)sulfonyl)-2,3-dihydro-1H-inden-1-ol] is 0.23 µM; for `N#Cc1cc(Oc2ccc(S(=O)(=O)C(F)(F)F)c3c2CCC3O)ccc1F` (stereo not drawn) [Compound 216, 2-Fluoro-5-((1-hydroxy-7-((trifluoromethyl)sulfonyl)-2,3-dihydro-1H-inden-4-yl)oxy)benzonitrile] it is 2.7 µM.
The figure for `O=S(=O)(c1ccc(Oc2ccc(F)c(Cl)c2)c2c1C(O)CC2)C(F)(F)F` (stereo not drawn) [Compound 218, 4-(3-Chloro-4-fluorophenoxy)-7-((trifluoromethyl)sulfonyl)-2,3-dihydro-1H-inden-1-ol] is 0.81 µM; for `CS(=O)(=O)c1cc(F)c(Oc2cc(F)cc(C#N)c2)c2c1C(O)C(F)(F)C2` (stereo not drawn) [Compound 219, 3-Fluoro-5-((2,2,5-trifluoro-1-hydroxy-7-(methylsulfonyl)-2,3-dihydro-1H-inden-4-yl)oxy)benzonitrile] it is 17 µM; for `N#Cc1cncc(Oc2ccc(S(=O)(=O)C(F)(F)F)c3c2CCC3O)c1` (stereo not drawn) [Compound 220, 5-((1-Hydroxy-7-((trifluoromethyl)sulfonyl)-2,3-dihydro-1H-inden-4-yl)oxy)nicotinonitrile] it is 0.7 µM.
For `O=S(=O)(c1ccc(Oc2ccc3[nH]ncc3c2)c2c1C(O)C(F)(F)C2)C(F)(F)F` (stereo not drawn) [Compound 238, 4-((1H-Indazol-5-yl)oxy)-2,2-difluoro-7-((trifluoromethyl)sulfonyl)-2,3-dihydro-1H-inden-1-ol] the value was 4.9 µM; for `O=S(=O)(c1ccc(Oc2cccc3[nH]ncc23)c2c1C(O)C(F)(F)C2)C(F)(F)F` (stereo not drawn) [Compound 243], 0.25 µM; for `O=S(=O)(c1ccc(Oc2c(F)ccc3[nH]ncc23)c2c1C(O)C(F)(F)C2)C(F)(F)F` (stereo not drawn) [Compound 244, 2,2-Difluoro-4-((5-fluoro-1H-indazol-4-yl)oxy)-7-((trifluoromethyl)sulfonyl)-2,3-dihydro-1H-inden-1-ol], 1 µM.
For the compound `N#Cc1cc(F)cc(Oc2ccc(Br)c3c2C(F)(F)C(F)(F)C3)c1` [Compound 248, 3-((7-Bromo-2,2,3,3-tetrafluoro-2,3-dihydro-1H-inden-4-yl)oxy)-5-fluorobenzonitrile], the IC50 is 17 µM.
The figure for `CS(=O)(=O)c1ccc(Oc2cc(C#N)cc(C(F)F)c2)c2c1C(O)CC2` (stereo not drawn) [Compound 249, 3-(Difluoromethyl)-5-((1-hydroxy-7-(methylsulfonyl)-2,3-dihydro-1H-inden-4-yl)oxy)benzonitrile] is 0.88 µM; for `N#Cc1cc(F)cc(Oc2ccc(S(=O)(=O)CCO)c3c2CC(F)(F)C3O)c1` (stereo not drawn) [Compound 250, 3-((2,2-Difluoro-1-hydroxy-7-((2-hydroxyethyl)sulfonyl)-2,3-dihydro-1H-inden-4-yl)oxy)-5-fluorobenzonitrile] it is 1.3 µM.
In turn, `N#Cc1cncc(Oc2ccc(S(N)(=O)=O)c3c2CC(F)(F)[C@H]3O)c1` [Compound 253, (S)-7-((5-Cyanopyridin-3-yl)oxy)-2,2-difluoro-3-hydroxy-2,3-dihydro-1H-indene-4-sulfonamide] registered an IC50 of 18 µM.
`NS(=O)(=O)c1ccc(Oc2cc(F)cc(F)c2)c2c1C(O)CC2` (stereo not drawn) [Compound 257, 7-(3,5-Difluorophenoxy)-3-hydroxy-2,3-dihydro-1H-indene-4-sulfonamide] returned an IC50 of 1.9 µM.
As for `N#Cc1cc(F)cc(Oc2ccc(S(=N)(=O)C(F)(F)F)c3c2CCC3O)c1` (stereo not drawn) [Compound 258, 3-Fluoro-5-((1-hydroxy-7-(S-(trifluoromethyl)sulfonimidoyl)-2,3-dihydro-1H-inden-4-yl)oxy)benzonitrile], the midpoint of inhibition, the IC50, lay at 0.41 µM.
The figure for `O=S(=O)(c1ccc(Oc2cc(F)c(F)c3[nH]ncc23)c2c1C(O)C(F)(F)C2)C(F)(F)F` (stereo not drawn) [Compound 261, 4-((6,7-Difluoro-1H-indazol-4-yl)oxy)-2,2-difluoro-7-((trifluoromethyl)sulfonyl)-2,3-dihydro-1H-inden-1-ol] is 0.64 µM.
For `O=S(=O)(c1ccc(Oc2cc(F)cc3[nH]ncc23)c2c1C(O)C(F)(F)C2)C(F)(F)F` (stereo not drawn) [Compound 262, 2,2-Difluoro-4-((6-fluoro-1H-indazol-4-yl)oxy)-7-((trifluoromethyl)sulfonyl)-2,3-dihydro-1H-inden-1-ol] the value was 4.9 µM; for `O=S(=O)(c1ccc(Oc2cccc3[nH]ncc23)c2c1[C@H](O)C(F)(F)C2)C(F)(F)F` [Compound 263, (S)-4-((1H-Indazol-4-yl)oxy)-2,2-difluoro-7-((trifluoromethyl)sulfonyl)-2,3-dihydro-1H-inden-1-ol], 0.025 µM.
The figure for `O=S(=O)(c1ccc(Oc2c(F)ccc3[nH]ncc23)c2c1[C@H](O)C(F)(F)C2)C(F)(F)F` [Compound 264, (S)-2,2-Difluoro-4-((5-fluoro-1H-indazol-4-yl)oxy)-7-((trifluoromethyl)sulfonyl)-2,3-dihydro-1H-inden-1-ol] is 0.38 µM; for `N#Cc1cc(F)cc(Oc2ccc(S(=O)(=O)C(F)(F)F)c3c2CC(F)C3N)c1` (stereo not drawn) [Compound 268, 3-((1-amino-2-fluoro-7-((trifluoromethyl)sulfonyl)-2,3-dihydro-1H-inden-4-yl)oxy)-5-fluorobenzonitrile] it is 3.5 µM; for `CS(=O)(=O)c1ccc(Oc2cc(F)cc(C#N)c2)c2c1C(=O)C(F)(Cl)C2` (stereo not drawn) [Compound 269, 3-((2-chloro-2-fluoro-7-(methylsulfonyl)-1-oxo-2,3-dihydro-1H-inden-4-yl)oxy)-5-fluorobenzonitrile] it is 0.31 µM.
As to `C[S+]([O-])c1ccc(Oc2cc(F)cc(C#N)c2)c2c1[C@H](O)C(F)(F)C2` (stereo partly drawn) [Compound 272, 3-[(1S)-2,2-Difluoro-1-hydroxy-7-methylsulfinyl-indan-4-yl]oxy-5-fluoro-benzonitrile], the IC50 amounted to 2 µM.
